From PubChem BioAssay AID248 (DTP/NCI, 2004)
Toxic doses and inconclusive results are not listed.

System: L1210 leukemia ip in BDF1 mice, survival T/C
Assay: NCI In Vivo Anticancer Drug Screen. Data for tumor model L1210 Leukemia (intraperitoneal) in B6D2F1 (BDF1) mice
Details: endpoint: mean survival time, higher = longer survival
Method in brief: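 Value reflects the ratio of survival in compound-treated mice to survival in vehicle-treated controls, with both groups carrying the same transplanted tumor.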

[1] = dose: 100.0 mg/kg/injection, schedule: Q04DX003 (ip), vehicle: Klucel (hydroxypropylcellulose) (HPC)
[2] = dose: 200.0 mg/kg/injection, schedule: Q04DX003 (ip), vehicle: Klucel (hydroxypropylcellulose) (HPC)
[3] = dose: 400.0 mg/kg/injection, schedule: Q04DX003 (ip), vehicle: Klucel (hydroxypropylcellulose) (HPC)
[4] = dose: 100.0 mg/kg/injection, schedule: Q04DX003 (ip), vehicle: saline with Tween-80
[5] = dose: 200.0 mg/kg/injection, schedule: Q04DX003 (ip), vehicle: saline with Tween-80
[6] = dose: 400.0 mg/kg/injection, schedule: Q04DX003 (ip), vehicle: saline with Tween-80
[7] = dose: 100.0 mg/kg/injection, schedule: Q01DX009 (ip), vehicle: Klucel (hydroxypropylcellulose) (HPC)
[8] = dose: 200.0 mg/kg/injection, schedule: Q01DX009 (ip), vehicle: Klucel (hydroxypropylcellulose) (HPC)
[9] = dose: 400.0 mg/kg/injection, schedule: Q01DX009 (ip), vehicle: Klucel (hydroxypropylcellulose) (HPC)
[10] = dose: 100.0 mg/kg/injection, schedule: Q04DX002 (ip), vehicle: saline with Tween-80
[11] = dose: 100.0 mg/kg/injection, schedule: Q01DX009 (ip), vehicle: saline with Tween-80
[12] = dose: 200.0 mg/kg/injection, schedule: Q01DX009 (ip), vehicle: saline with Tween-80
[13] = dose: 100.0 mg/kg/injection, schedule: Q04DX003 (ip), vehicle: saline
[14] = dose: 200.0 mg/kg/injection, schedule: Q04DX003 (ip), vehicle: saline
[15] = dose: 400.0 mg/kg/injection, schedule: Q04DX003 (ip), vehicle: saline

SMILES: Cc1ccc(/C(=N\N=C(N)N)C2CC2)cc1C
- T/C (dose: 15.0 mg/kg/injection, schedule: Q01DX Z (ip), vehicle: methylcellulose (MC)): 103 % of control
- T/C (dose: 30.0 mg/kg/injection, schedule: Q01DX Z (ip), vehicle: methylcellulose (MC)): 97 % of control
- T/C (dose: 30.0 mg/kg/injection, schedule: Q01DX Z (oral), vehicle: methylcellulose (MC)): 95 % of control
- T/C (dose: 60.0 mg/kg/injection, schedule: Q01DX Z (ip), vehicle: methylcellulose (MC)): 93 % of control
- T/C (dose: 60.0 mg/kg/injection, schedule: Q01DX Z (oral), vehicle: methylcellulose (MC)): 88 % of control

SMILES: O=Nn1c2ccccc2c2ccccc21
- T/C (dose: 100.0 mg/kg/injection, schedule: Q04DX003 (ip), vehicle: gum acacia): 92 % of control
- T/C (dose: 200.0 mg/kg/injection, schedule: Q04DX003 (ip), vehicle: gum acacia): 95 % of control
- T/C (dose: 400.0 mg/kg/injection, schedule: Q04DX003 (ip), vehicle: gum acacia): 87 % of control

SMILES: CCNC(=O)c1c2ccccc2nc2c1c(C)c(C)c1ccccc12
- T/C [1]: 108 % of control
- T/C [2]: 112 % of control
- T/C [3]: 106 % of control

SMILES: CC(C)C1(Br)C(=O)NC(=O)NC1=O
- T/C (dose: 6.25 mg/kg/injection, schedule: Q01DX009 (ip), vehicle: Klucel (hydroxypropylcellulose) (HPC)): 103 % of control
- T/C (dose: 12.5 mg/kg/injection, schedule: Q01DX009 (ip), vehicle: Klucel (hydroxypropylcellulose) (HPC)): 108 % of control

SMILES: O=NN(CCCl)C(=O)Nc1ccc(F)cc1
- T/C (dose: 9.37 mg/kg/injection, schedule: Q01DX001 (ip), vehicle: carboxymethylcellulose (CMC)): 150 % of control
- T/C (dose: 12.5 mg/kg/injection, schedule: Q01DX001 (ip), vehicle: carboxymethylcellulose (CMC)): 162 % of control
- T/C (dose: 18.75 mg/kg/injection, schedule: Q01DX001 (ip), vehicle: carboxymethylcellulose (CMC)): 171 % of control
- T/C (dose: 25.0 mg/kg/injection, schedule: Q01DX001 (ip), vehicle: carboxymethylcellulose (CMC)): 253 % of control
- T/C (dose: 37.5 mg/kg/injection, schedule: Q01DX001 (ip), vehicle: carboxymethylcellulose (CMC)): 171 % of control

SMILES: CCOC(=O)C(CC)C(=O)OCC
- T/C [4]: 104 % of control
- T/C [5]: 98 % of control
- T/C [6]: 93 % of control

SMILES: CCOc1ccc(/C=N/NC(=O)CCCCCCCCC(=O)N/N=C/c2ccc(OCC)c(OC)c2)cc1OC
- T/C [7]: 95 % of control
- T/C [8]: 88 % of control
- T/C [9]: 97 % of control

SMILES: CCCCC(=O)c1ccc(F)cc1
- T/C [7]: 96 % of control
- T/C [1]: 105 % of control
- T/C [8]: 98 % of control
- T/C [2]: 93 % of control
- T/C [9]: 98 % of control
- T/C [3]: 100 % of control

SMILES: CCS(=O)(=O)/C=C/c1cccs1
- T/C [7]: 104 % of control
- T/C [8]: 100 % of control

SMILES: O=C1C(n2ccc(=O)[nH]c2=O)CCN1CCOCc1ccccc1 (stereo unspecified)
- T/C [7]: 105 % of control
- T/C [8]: 105 % of control
- T/C [9]: 100 % of control

SMILES: C=C(CCCCCCCCCCCCCCCC)C(=O)O
- T/C [10]: 91 % of control
- T/C (dose: 400.0 mg/kg/injection, schedule: Q04DX002 (ip), vehicle: saline with Tween-80): 88 % of control

SMILES: Cc1ccc([I+]c2ccc(C)cc2)cc1
- T/C (dose: 8.0 mg/kg/injection, schedule: Q04DX002 (ip), vehicle: saline): 101 % of control
- T/C (dose: 16.0 mg/kg/injection, schedule: Q04DX002 (ip), vehicle: saline): 92 % of control
- T/C (dose: 32.0 mg/kg/injection, schedule: Q04DX002 (ip), vehicle: saline): 92 % of control

SMILES: O=C(Cl)OCC(Cl)(Cl)Cl
- T/C (dose: 100.0 mg/kg/injection, schedule: Q01DX001 (ip), vehicle: Klucel (hydroxypropylcellulose) (HPC)): 100 % of control
- T/C [7]: 100 % of control
- T/C (dose: 200.0 mg/kg/injection, schedule: Q01DX001 (ip), vehicle: Klucel (hydroxypropylcellulose) (HPC)): 100 % of control
- T/C [8]: 96 % of control
- T/C (dose: 400.0 mg/kg/injection, schedule: Q01DX001 (ip), vehicle: Klucel (hydroxypropylcellulose) (HPC)): 100 % of control

SMILES: CCN(CC)CCNc1ncnc2c1cnn2-c1ccc(Cl)cc1
- T/C (dose: 25.0 mg/kg/injection, schedule: Q01DX009 (ip), vehicle: Klucel (hydroxypropylcellulose) (HPC)): 95 % of control
- T/C (dose: 50.0 mg/kg/injection, schedule: Q01DX009 (ip), vehicle: Klucel (hydroxypropylcellulose) (HPC)): 95 % of control
- T/C [7]: 92 % of control
- T/C [11]: 101 % of control
- T/C [1]: 95 % of control
- T/C [4]: 103 % of control
- T/C (dose: 150.0 mg/kg/injection, schedule: Q01DX009 (ip), vehicle: Klucel (hydroxypropylcellulose) (HPC)): 101 % of control
- T/C [12]: 95 % of control
- T/C [2]: 95 % of control
- T/C [5]: 94 % of control
- T/C (dose: 225.0 mg/kg/injection, schedule: Q01DX009 (ip), vehicle: Klucel (hydroxypropylcellulose) (HPC)): 93 % of control
- T/C (dose: 335.0 mg/kg/injection, schedule: Q01DX009 (ip), vehicle: Klucel (hydroxypropylcellulose) (HPC)): 87 % of control
- T/C [3]: 95 % of control
- T/C [6]: 103 % of control

SMILES: CCC[As](=O)(O)c1ccc(Cl)cc1
- T/C (dose: 1.56 mg/kg/injection, schedule: Q01DX001 (ip), vehicle: Klucel (hydroxypropylcellulose) (HPC)): 100 % of control
- T/C (dose: 3.13 mg/kg/injection, schedule: Q01DX001 (ip), vehicle: Klucel (hydroxypropylcellulose) (HPC)): 91 % of control
- T/C (dose: 6.25 mg/kg/injection, schedule: Q01DX001 (ip), vehicle: Klucel (hydroxypropylcellulose) (HPC)): 98 % of control
- T/C (dose: 12.5 mg/kg/injection, schedule: Q01DX001 (ip), vehicle: Klucel (hydroxypropylcellulose) (HPC)): 109 % of control
- T/C (dose: 25.0 mg/kg/injection, schedule: Q01DX001 (ip), vehicle: Klucel (hydroxypropylcellulose) (HPC)): 92 % of control

SMILES: C#CC1(OC(O)C(Cl)(Cl)Cl)CCCCC1 (stereo unspecified)
- T/C [13]: 103 % of control
- T/C [14]: 106 % of control
- T/C [15]: 103 % of control

SMILES: CC[CH2][Pb]([CH2]CC)([CH2]CC)[O]C(=O)C(F)(F)F
- T/C (dose: 12.5 mg/kg/injection, schedule: Q04DX002 (ip), vehicle: Klucel (hydroxypropylcellulose) (HPC)): 107 % of control
- T/C (dose: 25.0 mg/kg/injection, schedule: Q04DX002 (ip), vehicle: Klucel (hydroxypropylcellulose) (HPC)): 95 % of control

SMILES: NC1CCC1N (stereo unspecified)
- T/C [13]: 104 % of control
- T/C [14]: 108 % of control
- T/C [15]: 98 % of control

SMILES: CCOC(=O)/C(O)=C\c1cc(OC)n[n+]([O-])c1Cl
- T/C (dose: 25.0 mg/kg/injection, schedule: Q04DX002 (ip), vehicle: saline with Tween-80): 102 % of control
- T/C (dose: 50.0 mg/kg/injection, schedule: Q04DX002 (ip), vehicle: saline with Tween-80): 98 % of control
- T/C [10]: 102 % of control

SMILES: O=C(NC1CCCCC1)OC/C=C\c1ccccc1
- T/C [7]: 101 % of control
- T/C [1]: 101 % of control
- T/C [8]: 98 % of control
- T/C [2]: 96 % of control
- T/C [9]: 109 % of control
- T/C [3]: 102 % of control

SMILES: O=[N+]([O-])c1cc(Br)cc(Br)c1
- T/C [11]: 97 % of control
- T/C [4]: 91 % of control
- T/C [12]: 99 % of control
- T/C [5]: 94 % of control
- T/C (dose: 400.0 mg/kg/injection, schedule: Q01DX009 (ip), vehicle: saline with Tween-80): 93 % of control
- T/C [6]: 93 % of control

SMILES: O=C(C(=O)c1ccc([N+](=O)[O-])cc1)c1ccccc1
- T/C [1]: 97 % of control
- T/C [2]: 100 % of control
- T/C [3]: 94 % of control

SMILES: CCN(C(=O)Nc1ccc(F)c(Cl)c1)c1ccc(Cl)cc1
- T/C (dose: 50.0 mg/kg/injection, schedule: Q01DX009 (ip), vehicle: saline with Tween-80): 100 % of control
- T/C [11]: 96 % of control
- T/C [12]: 96 % of control

SMILES: O=S(=O)(/C=N\N=P(c1ccccc1)(c1ccccc1)c1ccccc1)c1ccccc1-c1ccccc1
- T/C [4]: 109 % of control
- T/C [5]: 98 % of control
- T/C [6]: 93 % of control
